The supplement of paper PMC11061612

Columns and labels:
Assay in all cases: Bliss excess, mean over the matrix (fraction); higher = more synergy
NCI-H2595 (Mesothelioma) = system: NCI-H2595 (Mesothelioma)
Summary of the method: (§1)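 After 24 hours at 37°C and 5% CO2 in 1536-well plates, cells in DMEM/F12 or RPMI plus 10% FBS received two-drug dose matrices for 72 hours. Viability came from CellTiter-Glo 2.0 luminescence and was scaled as inhibition, anchored at 0 by vehicle wells and at 1 by blank wells. Combination Emax is taken as the second-highest inhibition in the matrix, and Bliss excess as the observed combination effect less EA + EB − EA·EB, with EA and EB the single-agent effects.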

[1] = system: CFPAC-1 (Pancreatic Carcinoma)
Summary of the method: as §1

ES7 (Ewing's Sarcoma) = system: ES7 (Ewing's Sarcoma)
Summary of the method: as §1

SK-N-FI (Neuroblastoma) = system: SK-N-FI (Neuroblastoma)
Summary of the method: as §1

[2] = system: 697 (B-Lymphoblastic Leukemia)
Summary of the method: as §1

[3] = system: C3A (Hepatocellular Carcinoma)
Summary of the method: as §1

[4] = system: KARPAS-620 (Plasma Cell Myeloma)
Summary of the method: as §1

[5] = system: JiyoyeP-2003 (Burkitt's Lymphoma)
Summary of the method: as §1

RH-1 (Ewing's Sarcoma) = system: RH-1 (Ewing's Sarcoma)
Summary of the method: as §1

[6] = system: SNU-C5 (Colorectal Carcinoma)
Summary of the method: as §1

[7] = system: MDA-MB-231 (Breast Carcinoma)
Summary of the method: as §1

[8] = system: TE-5 (Esophageal Squamous Cell Carcinoma)
Summary of the method: as §1

[9] = system: SW1783 (Low Grade Glioma)
Summary of the method: as §1

[10] = system: LU-99A (Non-Small Cell Lung Carcinoma)
Summary of the method: as §1

[11] = system: SW780 (Bladder Carcinoma)
Summary of the method: as §1

[12] = system: NCI-H1694 (Small Cell Lung Carcinoma)
Summary of the method: as §1

[13] = system: KARPAS-1106P (B-Cell Non-Hodgkin's Lymphoma)
Summary of the method: as §1

DSH1 (Bladder Carcinoma) = system: DSH1 (Bladder Carcinoma)
Summary of the method: as §1

[14] = system: KM-H2 (Hodgkin's Lymphoma)
Summary of the method: as §1

[15] = system: COR-L23 (Non-Small Cell Lung Carcinoma)
Summary of the method: as §1

| Compound | Bliss excess (NCI-H2595 (Mesothelioma)) | Bliss excess [1] | Bliss excess (ES7 (Ewing's Sarcoma)) | Bliss excess (SK-N-FI (Neuroblastoma)) | Bliss excess [2] | Bliss excess [3] | Bliss excess [4] | Bliss excess [5] | Bliss excess (RH-1 (Ewing's Sarcoma)) | Bliss excess [6] | Bliss excess [7] | Bliss excess [8] | Bliss excess [9] | Bliss excess [10] | Bliss excess [11] | Bliss excess [12] | Bliss excess [13] | Bliss excess (DSH1 (Bladder Carcinoma)) | Bliss excess [14] | Bliss excess [15] |
| --- | --- | --- | --- | --- | --- | --- | --- | --- | --- | --- | --- | --- | --- | --- | --- | --- | --- | --- | --- | --- |
| CC(=O)c1c(C)c2cnc(Nc3ccc(N4CCNCC4)cn3)nc2n(C2CCCC2)c1=O [Palbociclib] + Cn1cnc2c(F)c(Nc3ccc(Br)cc3Cl)c(C(=O)NOCCO)cc21 [Selumetinib] (first compound max 10 µM, 7x7, partner max 10 µM) | -0.0429 | -0.0354 | 0.0067 | 0.016 | -0.0685 | -0.0011 | 0.166 | 0.0443 | -0.0379 | -0.0615 | 0.0613 | -0.0511 | -0.0447 | -0.0398 | -0.0008 | -0.0989 | 0.0399 | -0.0834 | 0.0036 | 0.0224 |
| COc1cccc(OCCCN)c1-c1cc(Nc2cnc(C#N)cn2)n[nH]1 [Prexasertib] + C=CCn1c(=O)c2cnc(Nc3ccc(N4CCN(C)CC4)cc3)nc2n1-c1cccc(C(C)(C)O)n1 [AZD1775] (first compound max 1 µM, partner max 1 µM) | 0.0383 | -0.0145 | 0.0597 | 0.0466 | 0.0316 | 0.0463 | 0.0927 | 0.0839 | 0.0653 | 0.0153 | 0.124 | -0.0245 | -0.0053 | 0.0196 | 0.0349 | 0.13 | -0.0047 | 0.112 | 0.077 | 0.047 |
| COc1cccc(OCCCN)c1-c1cc(Nc2cnc(C#N)cn2)n[nH]1 [Prexasertib] + CCc1c2c(nc3ccc(O)cc13)-c1cc3c(c(=O)n1C2)COC(=O)[C@]3(O)CC [SN-38] (first compound max 1 µM, 7x7, partner max 0.3 µM) | 0.0211 | -0.107 | -0.012 | 0.0093 | 0.0017 | -0.112 | 0.0396 | 0.0073 | -0.0177 | -0.0375 | 0.0723 | -0.0476 | -0.0739 | -0.0593 | -0.0348 | 0.0037 | -0.124 | 0.0128 | -0.0411 | 0.0388 |
| COc1cccc(OCCCN)c1-c1cc(Nc2cnc(C#N)cn2)n[nH]1 [Prexasertib] + CN(C)CCCOc1ccc(-c2ccc3ncc4c(c3c2)n(C2CCOCC2)c(=O)n4C)cn1 [AZD0156] (first compound max 1 µM, 7x7, partner max 1 µM) | -0.0573 | 0.0232 | -0.0329 | -0.0168 | -0.0087 | 0.0035 | 0.0277 | -0.0003 | 0.0241 | -0.0292 | -0.0306 | 0.0016 | -0.0111 | 0.0172 | -0.0232 | -0.0433 | -0.0308 | -0.0243 | -0.0337 | 0.0229 |
| COc1cccc(OCCCN)c1-c1cc(Nc2cnc(C#N)cn2)n[nH]1 [Prexasertib] + C[C@@H]1COCCN1C2=NC(=NC(=C2)C3(CC3)[S@](=N)(=O)C)C4=C5C=CNC5=NC=C4 [AZD6738] (first compound max 1 µM, 7x7, partner max 10 µM) | -0.0279 | -0.0284 | -0.0416 | 0.0336 | 0.0031 | -0.034 | -0.0375 | -0.0065 | 0.0014 | -0.0143 | 0.0988 | 0.0203 | 0.0261 | -0.0398 | 0.0009 | -0.06 | -0.0714 | -0.0083 | -0.0214 | -0.0311 |
| COc1cccc(OCCCN)c1-c1cc(Nc2cnc(C#N)cn2)n[nH]1 [Prexasertib] + Cc1cc2ncnn2cc1Nc1ncc2c(n1)n(C1CCOCC1)c(=O)n2C [AZD7648] (first compound max 1 µM, 7x7, partner max 10 µM) | -0.0172 | -0.0398 | -0.0483 | -0.0084 | -0.0293 | -0.0264 | 0.0083 | 0.017 | -0.0085 | -0.0495 | 0.0128 | 0.0129 | -0.0281 | -0.0343 | 0.001 | -0.0259 | -0.0595 | -0.0289 | -0.023 | 0.0184 |
| COc1cccc(OCCCN)c1-c1cc(Nc2cnc(C#N)cn2)n[nH]1 [Prexasertib] + O=C(c1cc(Cc2n[nH]c(=O)c3ccccc23)ccc1F)N1CCN(C(=O)C2CC2)CC1 [Olaparib] (first compound max 1 µM, 7x7, partner max 10 µM) | -0.0053 | -0.0834 | 0.0058 | -0.0683 | 0.0371 | -0.0461 | -0.046 | -0.0421 | -0.0203 | -0.109 | -0.127 | 0.0048 | -0.0344 | -0.0849 | -0.009 | -0.0596 | -0.0936 | -0.162 | -0.0611 | 0.0116 |
| COc1cc2c(cc1OCCCCCOc1cc3c(cc1OC)C(=O)N1C=C(C)C[C@H]1C=N3)N=C[C@@H]1CC(C)=CN1C2=O [SG3199] + O=C(c1cc(Cc2n[nH]c(=O)c3ccccc23)ccc1F)N1CCN(C(=O)C2CC2)CC1 [Olaparib] (first compound max 0.001 µM, 7x7, partner max 10 µM) | -0.0437 | -0.0329 | 0.0011 | -0.0296 | 0.0376 | -0.0528 | -0.0015 | -0.0016 | -0.0035 | -0.0362 | -0.0808 | -0.0665 | -0.0446 | -0.0672 | -0.0497 | -0.0222 | -0.0202 | -0.0442 | 0.0232 | 0.0285 |
| CCc1c2c(nc3ccc(O)cc13)-c1cc3c(c(=O)n1C2)COC(=O)[C@]3(O)CC [SN-38] + CN(C)CCCOc1ccc(-c2ccc3ncc4c(c3c2)n(C2CCOCC2)c(=O)n4C)cn1 [AZD0156] (first compound max 0.3 µM, 7x7, partner max 1 µM) | -0.0399 | -0.0436 | 0.0565 | 0.0628 | 0.0689 | -0.0646 | -0.0242 | 0.0406 | 0.0845 | 0.036 | 0.0937 | 0.0124 | -0.039 | 0.0406 | -0.0475 | -0.0333 | -0.0346 | -0.0382 | 0.0794 | 0.014 |
| C[C@@H](c1ccc2nccn2c1)n1nnc2ncc(-c3cnn(C)c3)nc21 [Savolitinib] + CC1(C)CCC(CN2CCN(c3ccc(C(=O)NS(=O)(=O)c4ccc(NCC5CCOCC5)c([N+](=O)[O-])c4)c(Oc4cnc5[nH]ccc5c4)c3)CC2)=C(c2ccc(Cl)cc2)C1 [Venetoclax] (first compound max 1 µM, 7x7, partner max 1 µM) | 0.006 | -0.0514 | -0.0354 | -0.0537 | -0.114 | -0.0545 | -0.0449 | -0.0438 | -0.0321 | -0.0596 | -0.0599 | -0.0557 | -0.0442 | -0.0746 | -0.0671 | -0.0286 | -0.0157 | 0 | 0 | -0.0457 |
| C[C@@H](c1ccc2nccn2c1)n1nnc2ncc(-c3cnn(C)c3)nc21 [Savolitinib] + Cc1c2c(nn1C)CSCc1cc(n(C)n1)CSc1cc(c3ccccc3c1)OCCCc1c(C(=O)O)n(C)c3c-2c(Cl)ccc13 [AZD5991] (first compound max 1 µM, 7x7, partner max 1 µM) | -0.052 | -0.0875 | -0.017 | -0.0077 | -0.0516 | -0.0229 | -0.049 | -0.0034 | 0.0031 | -0.05 | -0.0186 | -0.027 | -0.0133 | -0.0346 | -0.0487 | 0.0027 | -0.0518 | 0.0335 | -0.0286 | -0.048 |
| Cn1cnc2c(F)c(Nc3ccc(Br)cc3Cl)c(C(=O)NOCCO)cc21 [Selumetinib] + C=CCn1c(=O)c2cnc(Nc3ccc(N4CCN(C)CC4)cc3)nc2n1-c1cccc(C(C)(C)O)n1 [AZD1775] (first compound max 10 µM, partner max 1 µM) | -0.0443 | -0.0439 | -0.0548 | -0.0433 | -0.0131 | -0.022 | 0.0719 | -0.0563 | -0.0491 | 0.0241 | -0.0337 | -0.0514 | -0.0939 | -0.0624 | -0.0555 | -0.067 | -0.0358 | -0.0355 | -0.0685 | 0.0308 |
| Cn1cnc2c(F)c(Nc3ccc(Br)cc3Cl)c(C(=O)NOCCO)cc21 [Selumetinib] + CC(C)n1c(=O)n(C)c2cnc3cc(F)c(-c4ccc(OCCCN5CCCCC5)nc4)cc3c21 [AZD1390] (first compound max 10 µM, 7x7, partner max 0.3 µM) | -0.0415 | -0.0627 | -0.0301 | -0.0208 | -0.0227 | 0.0046 | 0.0201 | -0.0153 | -0.0497 | -0.0283 | 0.0101 | -0.0317 | -0.048 | -0.0058 | -0.0542 | -0.0085 | -0.0376 | -0.0002 | -0.027 | -0.0251 |
| Cn1cnc2c(F)c(Nc3ccc(Br)cc3Cl)c(C(=O)NOCCO)cc21 [Selumetinib] + CCN(CCO)CCCOc1ccc2c(Nc3cc(CC(=O)Nc4cccc(F)c4)[nH]n3)ncnc2c1 [AZD2811] (first compound max 10 µM, 7x7, partner max 1 µM) | -0.0185 | -0.0529 | -0.0524 | 0.0239 | 0.0059 | -0.0272 | 0.193 | -0.0053 | -0.0239 | 0.038 | 0.0107 | -0.0191 | -0.0559 | -0.0383 | -0.0198 | 0.0136 | 0.0245 | 0.0022 | -0.0193 | 0.0428 |
| Cn1cnc2c(F)c(Nc3ccc(Br)cc3Cl)c(C(=O)NOCCO)cc21 [Selumetinib] + C[C@@H]1COCCN1C2=NC(=NC(=C2)C3(CC3)[S@](=N)(=O)C)C4=C5C=CNC5=NC=C4 [AZD6738] (first compound max 10 µM, 7x7, partner max 10 µM) | -0.0326 | -0.0112 | -0.0585 | 0.0325 | 0.0344 | 0.0471 | 0.0471 | -0.0145 | -0.0215 | 0.0751 | -0.025 | -0.0388 | -0.103 | 0.0565 | 0.0087 | -0.0037 | -0.0007 | -0.0734 | -0.0148 | -0.0148 |
